Consider 29 molecules from patent US9732093B2, “FLAP modulators” (JANSSEN PHARMACEUTICA NV, priority 2013, dated 2017).

This assay concerns the target human FLAP (Homo sapiens (Human), UniProt P20292). The assay can be described thus: FLAP binding assay (HTRF format). To be noted: human FLAP wild type membranes, HTRF format; Table 6 (additional runs). On the procedure:
The ability of the compounds of the present invention to treat a FLAP-mediated disease and/or disorder, or associated symptoms or complications thereof, was determined using the following procedures. Binding assay data represent the average value obtained from two different assay plates, with samples run in duplicate on each plate. Human whole blood assay data represent a single replicate on an assay plate using whole blood from at least one healthy donor.
Data are expressed as a HTRF ratio.
Background: TR-FRET usually uses a lanthanide donor and a delayed reading to cut background.

SMILES strings stand for the structures.

human FLAP, sequence (P20292 whole entry): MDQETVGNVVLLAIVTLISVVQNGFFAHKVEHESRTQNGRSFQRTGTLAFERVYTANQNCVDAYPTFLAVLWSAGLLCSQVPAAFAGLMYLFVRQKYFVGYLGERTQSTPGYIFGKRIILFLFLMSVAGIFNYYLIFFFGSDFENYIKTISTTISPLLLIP

Broadly, the Ki is a dissociation constant, usually derived from enzyme kinetics or from competition with a known ligand. A higher Ki goes with weaker binding. For `CSc1ccnc(Oc2c(C3CCC3)ccc(-c3cnc(N)cn3)c2F)n1` [Example 88, 5-(4-Cyclobutyl-2-fluoro-3-{[4-(methylsulfanyl)pyrimidin-2-yl]oxy}phenyl)pyrazin-2-amine], affinity was put at a Ki of 3.5 nM.

The molecule `Cc1cc(C)nc(Oc2c(C3CCC3)ccc(-c3cnc(N)cn3)c2F)n1` [Example 89, 5-{4-Cyclobutyl-3-[(4,6-dimethylpyrimidin-2-yl)oxy]-2-fluorophenyl}pyrazin-2-amine] had a Ki of 5.3 nM.

For the molecule `CC(C)c1ccnc(Oc2c(C3CCC3)ccc(-c3cnc(N)cn3)c2F)n1` [Example 90, 5-(4-Cyclobutyl-2-fluoro-3-{[4-(1-methylethyl)pyrimidin-2-yl]oxy}phenyl)pyrazin-2-amine], the Ki came out at 53.8 nM.

In turn, `Nc1cnc(-c2ccc(C3CCC3)c(Oc3nccc(-c4cccs4)n3)c2F)cn1` [Example 91, 5-{4-Cyclobutyl-2-fluoro-3-[(4-thiophen-2-ylpyrimidin-2-yl)oxy]phenyl}pyrazin-2-amine] displayed a Ki of 0.8 nM.

For `COc1ccnc(Oc2c(C3CCC3)ccc(-c3cnc(N)cn3)c2F)n1` [Example 93, 5-{4-Cyclobutyl-2-fluoro-3-[(4-methoxypyrimidin-2-yl)oxy]phenyl}pyrazin-2-amine], the Ki is 5.2 nM.

For `COc1cnc(Oc2c(C3CCC3)ccc(-c3cnc(N)cn3)c2F)nc1` [Example 94, 5-{4-Cyclobutyl-2-fluoro-3-[(5-methoxypyrimidin-2-yl)oxy]phenyl}pyrazin-2-amine], affinity was put at a Ki of 44.5 nM.

Turning to `CS(=O)(=O)c1ccnc(Oc2c(C3CCC3)ccc(-c3cnc(N)cn3)c2F)n1` [Example 95, 5-(4-Cyclobutyl-2-fluoro-3-{[4-(methylsulfonyl)pyrimidin-2-yl]oxy}phenyl)pyrazin-2-amine], the Ki came to 4.7 nM.

For `COc1cc(Oc2c(C3CCC3)ccc(-c3cnc(N)cn3)c2F)nc(N)n1` [Example 99, 4-[3-(5-Aminopyrazin-2-yl)-6-cyclobutyl-2-fluorophenoxy]-6-methoxypyrimidin-2-amine], the Ki stood at 5.5 nM.

The molecule `COc1nc(N)cc(Oc2c(C3CCC3)ccc(-c3cnc(N)cn3)c2F)n1` [Example 100, 6-[3-(5-Aminopyrazin-2-yl)-6-cyclobutyl-2-fluorophenoxy]-2-methoxypyrimidin-4-amine] gave a Ki of 1.2 nM.

In turn, `Nc1cnc(-c2ccc(C3CCC3)c(Oc3cccc(C(F)(F)F)n3)c2F)cn1` [Example 102, 5-(4-Cyclobutyl-2-fluor-3-{[6-(trifluoromethyl)pyridin-2-yl]oxy}phenyl)pyrazin-2-amine] yielded a Ki of 1.8 nM.

In turn, `Nc1cnc(-c2ccc(C3CCC3)c(Oc3ncc(C(F)(F)F)cn3)c2F)cn1` [Example 104, 5-(4-Cyclobutyl-2-fluoro-3-{[5-(trifluoromethyl)pyrimidin-2-yl]oxy}phenyl)pyrazin-2-amine] yielded a Ki of 18.3 nM.

Turning to `Nc1cnc(-c2ccc(C3CCC3)c(Oc3cnc(C(F)(F)F)cn3)c2F)cn1` [Example 105, 5-(4-Cyclobutyl-2-fluoro-3-{[5-(trifluoromethyl)pyrazin-2-yl]oxy}phenyl)pyrazin-2-amine], the Ki stood at 39.4 nM.

Regarding `Nc1cnc(-c2ccc(C3CCC3)c(Oc3ccc(C(F)(F)F)nn3)c2F)cn1` [Example 106, 5-(4-Cyclobutyl-2-fluoro-3-{[6-(trifluoromethyl)pyridazin-3-yl]oxy}phenyl)pyrazin-2-amine], the Ki is 12.3 nM.

On to `COC(=O)c1ccc(Oc2c(C3CCC3)ccc(-c3cnc(N)cn3)c2F)nc1` [Example 107, Methyl 6-[3-(5-aminopyrazin-2-yl)-6-cyclobutyl-2-fluorophenoxy]pyridine-3-carboxylate], for which the inhibition constant (Ki) was 5.4 nM.

`N#Cc1ccc(Oc2c(C3CCC3)ccc(-c3cnc(N)cn3)c2F)cn1` [Example 108, 5-[3-(5-Aminopyrazin-2-yl)-6-cyclobutyl-2-fluorophenoxy]pyridine-2-carbonitrile] had a Ki of 28.1 nM.

The molecule `N#Cc1cc(Oc2c(C3CCC3)ccc(-c3cnc(N)cn3)c2F)ccn1` [Example 109, 4-[3-(5-Aminopyrazin-2-yl)-6-cyclobutyl-2-fluorophenoxy]pyridine-2-carbonitrile] came in with a Ki of 11.2 nM.

The molecule `N#Cc1cccnc1Oc1c(C2CCC2)ccc(-c2cnc(N)cn2)c1F` [Example 110, 2-[3-(5-Aminopyrazin-2-yl)-6-cyclobutyl-2-fluorophenoxy]pyridine-3-carbonitrile] came in with a Ki of 2.6 nM.

The molecule `N#Cc1cccc(Oc2c(C3CCC3)ccc(-c3cnc(N)cn3)c2F)n1` [Example 111, 6-[3-(5-Aminopyrazin-2-yl)-6-cyclobutyl-2-fluorophenoxy]pyridine-2-carbonitrile] returned a Ki of 2.4 nM.

For the molecule `N#Cc1ncccc1Oc1c(C2CCC2)ccc(-c2cnc(N)cn2)c1F` [Example 112, 3-[3-(5-Aminopyrazin-2-yl)-6-cyclobutyl-2-fluorophenoxy]pyridine-2-carbonitrile], the Ki is 13.6 nM.

On to `Nc1cnc(-c2ccc(C3CCC3)c(Oc3ccc(C(F)(F)F)cn3)c2F)cn1` [Example 113, 5-(4-Cyclobutyl-2-fluoro-3-{[5-(trifluoromethyl)pyridin-2-yl]oxy}phenyl)pyrazin-2-amine], for which the affinity corresponds to a Ki of 30.8 nM.

`Nc1cnc(-c2ccc(C3CCC3)c(Oc3ccc(S(F)(F)(F)(F)F)cc3)c2F)cn1` [Example 115, 5-{4-Cyclobutyl-2-fluoro-3-[4-(pentafluoro-lambda˜6˜-sulfanyl)phenoxy]phenyl}pyrazin-2-amine] registered a Ki of 53.7 nM.

The molecule `Nc1cnc(-c2ccc(C3CCC3)c(Oc3nccc(N)n3)c2F)cn1` [Example 119, 2-[3-(5-Aminopyrazin-2-yl)-6-cyclobutyl-2-fluorophenoxy]pyrimidin-4-amine] returned a Ki of 6.6 nM.

Take `Nc1cnc(-c2ccc(C3CCC3)c(Oc3ncccc3C(F)(F)F)c2F)cn1` [Example 121, 5-(4-Cyclobutyl-2-fluoro-3-{[3-(trifluoromethyl)pyridin-2-yl]oxy}phenyl)pyrazin-2-amine]: the Ki was 7.2 nM.

For the molecule `Nc1cnc(-c2ccc(C3CCC3)c(Oc3ncccc3Cl)c2F)cn1` [Example 122], the Ki was determined as 3.7 nM.

On to `Nc1cnc(-c2ccc(C3CCC3)c(Oc3ccnc(C(F)(F)F)n3)c2F)cn1` [Example 124, 5-(4-Cyclobutyl-2-fluoro-3-{[2-(trifluoromethyl)pyrimidin-4-yl]oxy}phenyl)pyrazin-2-amine], for which the Ki came to 2.8 nM.

The molecule `Cc1nccc(Oc2c(C3CCC3)ccc(-c3cnc(N)cn3)c2F)n1` [Example 134, 5-{4-Cyclobutyl-2-fluoro-3-[(2-methylpyrimidin-4-yl)oxy]phenyl}pyrazin-2-amine] displayed a Ki of 4.6 nM.

`Nc1cnc(-c2ccc(C3CCC3)c(Oc3ccnc(Cl)n3)c2F)cn1` [Example 137, 5-{3-[(2-Chloropyrimidin-4-yl)oxy]-4-cyclobutyl-2-fluorophenyl}pyrazin-2-amine] had a Ki of 4.3 nM.

In turn, `Nc1cnc(-c2ccc(C3CCC3)c(Oc3cc(C4CC4)ncn3)c2F)cn1` [Example 141, 5-{4-Cyclobutyl-3-[(6-cyclopropylpyrimidin-4-yl)oxy]-2-fluorophenyl}pyrazin-2-amine] returned a Ki of 5.5 nM.

Take `Nc1cnc(-c2ccc(C3CCC3)c(Oc3ccc(C(=O)O)cn3)c2F)cn1` [Example 154, 6-[3-(5-Aminopyrazin-2-yl)-6-cyclobutyl-2-fluorophenoxy]pyridine-3-carboxylic acid]: the affinity corresponds to a Ki of 17.6 nM.
